Results: patent US12169166B2, “Fluorogenic cyanine compounds for detecting nucleic acids” (AAT Bioquest, Inc., priority 2021, dated 2024)
Entries after “also recorded” stand apart in the source; their conditions may differ.

Tests used:
[1] = test system: pGL3 Control vector (Promega) DNA; assay: Pre-cast DNA gel staining; format: binding; settings: 0.9% agarose, dye 1 μg/ml; for amount of DNA clearly detected per lane, pre-cast gel staining: 300 nm UV transilluminator (FIG. 4); for sensitivity for detecting DNA on gel compared with TO, pre-cast gel staining: same conditions as TO
Method: (§1) FIGS. 4A-4B show a representation of pre-cast DNA gel staining with Compound 5 versus Thiazole Orange. Serial dilutions of a DNA sample (86, 43, 21.5, 10.7, 5.3, 2.6, 1.3, 0.5 ng/lane) are detected with Thiazole Orange or Compound 5. Compound 5 can clearly detect 5.3 ng DNA while TO can only detect 43 ng.
An agarose gel solution (0.9% agarose) is prepared following a standard protocol (J. Roskams et al., Lab Ref A Handbook of Recipes, Reagents, and Other Reference Tools for Use at the Bench, Cold Spring Harbor Laboratory Press, Cold Spring Harbor, N.Y., 2002). A stock solution of a cyanine dye in DMSO is prepared. An aliquot of the stock solution of dye is added to the gel solution, while it is hot, resulting in an effective working concentration of the dye (1 μg/ml). The resulting solution is thoroughly mixed by swirling. The resulting gel solution is poured onto a gel slab to cast the gel. Serial two-fold dilutions of pGL3 Control vector (Promega) are made and the resulting DNA samples are loaded onto the gel in eight lanes from left to right with a loading of 86, 43, 21.5, 10.7, 5.3, 2.6, 1.3, 0.5 ng/lane, respectively. The DNA samples are electrophoretically separated in 1×TAE buffer using a standard protocol. The resulting gel is then viewed using a UV transilluminator with 300 nm excitation. Photographs of the illuminated gels are taken with an EB filter.

[2] = test system: HeLa cells; assay: Cellular nucleic acid staining of live and fixed cells; format: cell-based; settings: dye 1 μg/ml in PBS, live or fixed HeLa cells, 30 min, fluorescence microscope (FIG. 6)
Method: A cyanine dye (1 μg/ml) in PBS buffer is incubated with live or fixed HeLa cells in 96-well plate for 30 min respectively. The fluorescence image of cells is taken with a fluorescence microscope.
A cyanine dye (1 μg/ml) in PBS buffer (prepared from 1 mM DMSO stock solution) is incubated with live and fixed HeLa cells in 96-well plate for 30 min respectively.

[3] = test system: S. typhimurium; assay: Mutagenicity test with S9 liver extract, colony count; format: cell-based; settings: 0.2, 1 and 5 ug/plate, 48 hours at 37° C. (FIG. 8)
Method: Mutagenicity tests are performed as described in Example 23.
Tubes of top agar are liquified and cooled to 55-60° C. 0.3 mL of histidine/biotin stock (Presque Isle Cultures) is added alongside 20 uL of S9 liver extract. (Sigma). To the top agar tubes 0.1 mL of S. typhimurium (Grown overnight at 37° C. in TSB culture) is added with 1 mL serological pipette. The mixture is thoroughly mixed by vortexing at low speed. The culture mixture is poured into the plates of the glucose-minimal salts agar plates. With the sterile loops, a disk on its edge is placed near the center of the plate. A serial concentrations of cyanine compounds (0.2, 1 and 5 ug/plate) are added to saturate the disk with a sterile Pasteur pipette. Sterile water is used with the same volume as a negative control. The plates are incubated for 48 hours at 37° C., and the colonies are counted near the disk.

[4] = test system: pGL3 Control vector (Promega) DNA; assay: Post-DNA gel staining; format: binding; settings: 0.9% agarose, dye 1 ug/ml, same conditions as TO
Method: as §1, with “FIGS. 5A-5B” for “FIGS. 4A-4B”, “of post-DNA” for “of pre-cast DNA”, “detect 1.3” for “detect 5.3”, “detect 21.5” for “detect 43”
Agarose gels (0.9% agarose) are prepared following a standard protocol (J. Roskams et al., Lab Ref A Handbook of Recipes, Reagents, and Other Reverence Tools for Use at the Bench, Cold Spring Harbor Laboratory Press, Cold Spring Harbor, N.Y., 2002). Serial two-fold dilutions of pGL3 Control vector (Promega) are made and the resulting DNA samples are loaded onto an agarose gel in eight lanes from left to right with a loading of 86, 43, 21.5, 10.7, 5.3, 2.6, 1.3, 0.5 ng/lane, respectively. The DNA samples are electrophoretically separated in 1×TAE buffer using a standard protocol. A stock solution of a cyanine dye in DMSO at about 12 mM concentration is prepared. The stock solution of dye is diluted using an appropriate aqueous solvent to provide a staining solution with an appropriate effective working concentration of the dye (1 ug/ml). The agarose gel is submerged in the staining solution for approximately 30 minutes to stain the gel. The resulting gel is then viewed using a UV transilluminator with 300 nm excitation. […]

[5] = test system: Calf thymus DNA; assay: Fluorescence emission spectra in the presence or absence of DNA; format: binding; settings: dye 5 ug/ml, DNA 3 ug/ml, Tris Buffer pH=8.0 (FIG. 2)
Method: Absorption and fluorescence spectra of cyanine compounds are measured in the presence or absence of DNA in Tris buffer (pH=8.0). […]

[6] = test system: Calf thymus DNA; assay: DNA responses in solution (fluorescence vs DNA concentration); format: binding; settings: Tris Buffer pH=8.0, serial DNA dilutions, microtiter plate reader (FIG. 3)
Method: The fluorescence intensities of Compound 5 are measured in the presence of serial dilutions of a DNA sample (0, 3.12, 6.25, 12.5, 25, 50, 100, 1000 ng/ml).
The fluorescence of a cyanine compound in 100 μL of Tris Buffer (pH=8.0) are measured in the presence of 0, 0.21, 0.62, 1.85, 5.6, 16.7, and 50 μg/ml final concentrations of Calf thymus DNA with a microtiter plate reader. The fluorescence is plotted against DNA concentration.

[7] = test system: HeLa cells; assay: Cellular cytotoxicity (cell viability, WST kit); format: cell-based; settings: 0-100 ug/mL dye, 24 hours (FIG. 7)
Method: HeLa cells are plated in a 96-well plate (100 μL volume). Next day, to each 100 ul of cells is added 100 ul cyanine solution to make a series of cell samples with the final cyanine dye concentrations of 0, 0.31, 0.62, 1.6, 3.12, 6.25, 12.5, 25, 50, 100 ug/mL respectively. The cell viabilities are measured and plotted for each sample.
HeLa cells are plated in a 96-well plate (100 μL volume). Next day, to each 100 ul of cells is added 100 ul cyanine solution to make a serial cell samples with the final cyanine dye concentrations of 0, 0.31, 0.62, 1.6, 3.12, 6.25, 12.5, 25, 50, 100 ug/mL respectively (total volume is 200 μL for each sample), The cells are incubated in the cyanine-containing media for 24 hours. The cell viabilities are measured with Cell Meter™ Colorimetric WST-5′ Cell Quantification Kit (AAT Bioquest) according to the product instruction.

Row | Structure (SMILES) | amount of DNA clearly detected per lane, pre-cast gel staining [1] [ng] | live cell permeability [2] | mutagenicity compared with SYBR Green [3] | sensitivity for detecting DNA on gel compared with TO, post-gel staining [4] | fluorescence enhancement in the presence vs absence of DNA, compared with TO [5] | fluorescence signal in response to increasing DNA concentrations, compared with TO [6] | sensitivity for detecting DNA on gel compared with TO, pre-cast gel staining [1] | cell toxicity compared with SYBR Green [7]
1 | CN1/C(=C/c2cc[n+](C)c3ccccc23)Sc2ccccc21 [TO, Thiazole Orange, reference compound] | 43 | can readily penetrate the cells |  |  |  |  |  | 
2 | OCCCCN1C(c2ccccc2)=C/C(=C\c2sc3ccccc3[n+]2CCCCO)c2ccccc21 [Compound 4] |  | cell impermeability | significantly lower mutagenicity than SYBR Green; also recorded: much lower mutagenicity than SYBR Green | significantly higher sensitivity for detecting DNA on gel than TO; also recorded: much higher sensitivity for detecting DNA on gel than TO | stronger fluorescence enhancements than TO | stronger fluorescence signals than TO; also recorded: linearly responded to the DNA concentrations with better sensitivity than TO | significantly higher sensitivity for detecting DNA on a gel than TO; also recorded: much higher sensitivity for detecting DNA on gel than TO | lower cell toxicity compared to SYBR Green; also recorded: much lower cell toxicity than SYBR Green
3 | NCCCCN1C(c2ccccc2)=C/C(=C\c2sc3ccccc3[n+]2CCCCN)c2ccccc21 [Compound 5] | 5.3 | live cell impermeant | significantly lower mutagenicity than SYBR Green; also recorded: much low mutagenicity than SYBR Green |  | stronger fluorescence enhancements than TO | significantly higher fluorescence signals than Thiazole orange (TO); also recorded: stronger fluorescence signals than TO |  | significantly lower cell toxicity than SYBR Green; also recorded: much lower cell toxicity than SYBR Green
4 | CC(=O)NCCCCN1C(c2ccccc2)=C/C(=C\c2sc3ccccc3[n+]2CCCCNC(C)=O)c2ccccc21 [Compound 6] |  | cell impermeability | significantly lower mutagenicity than SYBR Green; also recorded: much lower mutagenicity than SYBR Green | significantly higher sensitivity for detecting DNA on gel than TO; also recorded: much higher sensitivity for detecting DNA on gel than TO | stronger fluorescence enhancements than TO | stronger fluorescence signals than TO | significantly higher sensitivity for detecting DNA on a gel than TO; also recorded: much higher sensitivity for detecting DNA on gel than TO | lower cell toxicity compared to SYBR Green; also recorded: much lower cell toxicity than SYBR Green
